Measurements as given in patent US10155741B2, “Pyridine or pyrimidine derivatives” (Hoffmann-La Roche Inc., priority 2015, dated 2018).

System: not given
Experiment: not given
Details: not given

melting point [°C] | SMILES
178 | CC(C)c1ncncc1-c1cc(C(=O)NC(C)(C)C)cc(-c2ccc(F)c(F)c2)n1 [Example 7, N-tert-Butyl-2-(3,4-difluorophenyl)-6-(4-propan-2-yl-pyrimidin-5-yl)-pyridine-4-carboxamide]

Biological target: T1, human EAAT3 (Homo sapiens, UniProt P43005)
T1 construct: expressed in transfected cells
T1 sequence (P43005 1-524): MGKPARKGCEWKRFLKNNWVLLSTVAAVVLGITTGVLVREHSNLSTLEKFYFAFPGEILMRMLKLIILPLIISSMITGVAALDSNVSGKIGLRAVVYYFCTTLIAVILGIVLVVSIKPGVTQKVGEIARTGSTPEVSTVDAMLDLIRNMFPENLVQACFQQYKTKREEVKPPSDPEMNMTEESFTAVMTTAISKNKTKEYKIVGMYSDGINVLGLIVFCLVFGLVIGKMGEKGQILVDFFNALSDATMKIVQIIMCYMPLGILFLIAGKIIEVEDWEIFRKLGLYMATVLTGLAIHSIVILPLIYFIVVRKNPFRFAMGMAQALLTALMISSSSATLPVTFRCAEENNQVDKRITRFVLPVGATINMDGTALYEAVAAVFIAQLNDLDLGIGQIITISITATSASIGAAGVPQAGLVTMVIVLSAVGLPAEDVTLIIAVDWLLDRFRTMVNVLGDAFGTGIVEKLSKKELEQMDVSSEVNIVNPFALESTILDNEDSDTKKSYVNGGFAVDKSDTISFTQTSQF
Experiment: FLIPR Membrane Potential (FMP) assay, antagonist potency at human EAAT3
Format: cell-based
Details: HEK-293 cells stably expressing human EAAT3; L-glutamate as agonist at EC80; antagonist applied 15 min before; Kb by Cheng-Prusoff equation
Protocol: The FLIPR Membrane Potential (FMP) Assay
HEK-293 cells stably expressing human EAAT3 were seeded at 55 000 cells/well in growth medium (DMEM glutamate free (Invitrogen 11960-044), 1% Pen Strep (10 ml/l GIBCO BRL No 15140-023), 10% FCS non dialysed heat inactivated, 5 mg/l puromycin) in poly-D-lysine treated 96-well black microtiter plates with clear-bottom. After 24 h, the growth medium was removed and 100 μl/well of Krebs buffer (140 mM NaCl, 4.7 mM KCl, 2.5 mM CaCl2, 1.2 mM MgCl2, 11 mM HEPES, 10 mM D-glucose, pH=7.4) added. The cells were then loaded by adding 100 μl/well FMP assay dye (FLIPR Membrane Potential assay reagent, Molecular Devices). The 96-well plates were then incubated at 37° C. for 1 h. The depolarization of the cells will cause more dye to enter in the cells, where it will bind to intracellular proteins and lipids and cause an increase in the fluorescence signal. Antagonist potency at human EAAT3 was determined by using L-glutamate as agonist at a concentration which gives 80% of the maximum response. The antagonists were applied 15 min before the application of the agonist L-glutamate. The assays were performed at room temperature and measurements done by using a Fluorometric Imaging Plate Reader (FLIPR, Molecular Devices) and filter #2. Responses were measured as peak increase in fluorescence minus basal (i.e. fluorescence without addition of L-glutamate). Kb was determined using the Cheng-Prusoff equation Kb=IC50/[1+(A/EC50)], where IC50 is the concentration of the antagonist producing 50% inhibition, A is the concentration of the agonist against which the IC50 is being determined (at EC80) and EC50 is the concentration of the agonist producing 50% […].

SMILES | Kb [nM]
Cc1ccncc1-c1cc(C(=O)NC(C)(C)C)cc(-c2ccc(F)cc2)n1 [Example 4, N-tert-Butyl-2-(4-fluorophenyl)-6-(4-methylpyridin-3-yl)-pyridine-4-carboxamide] | 260
CCC(C)(C)NC(=O)c1cc(-c2ccc(F)cc2)nc(-c2cncnc2C(C)C)c1 [Example 18, 2-(4-Fluorophenyl)-N-(2-methylbutan-2-yl)-6-(4-propan-2-yl-pyrimidin-5-yl)-pyridine-4-carboxamide] | 120
Cc1ccc(-c2cc(C(=O)NC(C)(C)C)cc(-c3cncnc3C(C)C)n2)cc1F [Example 16, N-tert-Butyl-2-(3-fluoro-4-methylphenyl)-6-(4-propan-2-yl-pyrimidin-5-yl)-pyridine-4-carboxamide] | 250
CCc1ncncc1-c1cc(C(=O)NC(C)(C)C)cc(-c2ccc(F)cc2)n1 [Example 19, N-tert-Butyl-2-(4-ethyl-pyrimidin-5-yl)-6-(4-fluorophenyl)-pyridine-4-carboxamide] | 180
CC(C)c1ncncc1-c1cc(C(=O)NC(C)(C)C2CC2)cc(-c2ccc(Cl)cc2)n1 [Example 11, 2-(4-Chlorophenyl)-N-(2-cyclopropyl-propan-2-yl)-6-(4-propan-2-yl-pyrimidin-5-yl)-pyridine-4-carboxamide] | 150
Cc1ccncc1-c1cc(C(=O)NC(C)(C)C)cc(-c2ccc(Cl)cc2)n1 [Example 5, N-tert-Butyl-2-(4-chlorophenyl)-6-(4-methylpyridin-3-yl)-pyridine-4-carboxamide] | 220
CC(C)c1ncncc1-c1cc(C(=O)NC(C)(C)CO)cc(-c2ccc(Cl)cc2)n1 [Example 13, 2-(4-Chlorophenyl)-N-(1-hydroxy-2-methylpropan-2-yl)-6-(4-propan-2-yl-pyrimidin-5-yl)-pyridine-4-carboxamide] | 200
CC(C)c1ncncc1-c1cc(C(=O)NC(C)(C)C)cc(-c2ccc(F)c(F)c2)n1 [Example 7, N-tert-Butyl-2-(3,4-difluorophenyl)-6-(4-propan-2-yl-pyrimidin-5-yl)-pyridine-4-carboxamide] | 110
CC(C)c1ncncc1-c1cc(C(=O)NC2(C)CCS(=O)(=O)C2)cc(-c2ccc(F)cc2)n1 (racemic) [Example 17, (RS)-2-(4-Fluorophenyl)-N-(3-methyl-1,1-dioxothiolan-3-yl)-6-(4-propan-2-yl-pyrimidin-5-yl)-pyridine-4-carboxamide] | 270
Cc1cc(-c2cc(C(=O)NC(C)(C)C)cc(-c3cncnc3C(C)C)n2)ccc1F [Example 8, N-tert-Butyl-2-(4-fluoro-3-methylphenyl)-6-(4-propan-2-yl-pyrimidin-5-yl)-pyridine-4-carboxamide] | 260
CC(C)c1ncncc1-c1cc(C(=O)NC(C)(C)C)cc(-c2ccc(Cl)cc2)n1 [Example 1, N-tert-Butyl-2-(4-chlorophenyl)-6-(4-propan-2-yl-pyrimidin-5-yl)-pyridine-4-carboxamide] | 100
CC(C)c1ncncc1-c1cc(C(=O)NC(C)(C)C)cc(-c2ccc(C3CC3)cc2)n1 [Example 10, N-tert-Butyl-2-(4-cyclopropyl-phenyl)-6-(4-propan-2-yl-pyrimidin-5-yl)-pyridine-4-carboxamide] | 290
CC(C)c1ncncc1-c1cc(C(=O)NC(C)(C)C)cc(-c2ccc(C(F)(F)F)cc2)n1 [Example 3, N-tert-Butyl-2-(4-propan-2-yl-pyrimidin-5-yl)-6-[4-(trifluoromethyl)-phenyl]-pyridine-4-carboxamide] | 110
CC(C)c1ncncc1-c1cc(C(=O)NC(C)(C)C(F)(F)F)cc(-c2ccc(Cl)cc2)n1 [Example 14, 2-(4-Chlorophenyl)-6-(4-propan-2-yl-pyrimidin-5-yl)-N-(1,1,1-trifluoro-2-methylpropan-2-yl)-pyridine-4-carboxamide] | 270
CC(C)c1ncncc1-c1cc(C(=O)NC(C)(C)C#N)cc(-c2ccc(Cl)cc2)n1 [Example 12, 2-(4-Chlorophenyl)-N-(2-cyanopropan-2-yl)-6-(4-propan-2-yl-pyrimidin-5-yl)-pyridine-4-carboxamide] | 470
CC(C)c1ncncc1-c1cc(C(=O)NC(C)(C)C)cc(-c2ccc(F)cc2)n1 [Example 2, N-tert-Butyl-2-(4-fluorophenyl)-6-(4-propan-2-yl-pyrimidin-5-yl)-pyridine-4-carboxamide] | 120
Cc1ccc(-c2cc(C(=O)NC(C)(C)C)cc(-c3cncnc3C(C)C)n2)cc1 [Example 6, N-tert-Butyl-2-(4-methylphenyl)-6-(4-propan-2-yl-pyrimidin-5-yl)-pyridine-4-carboxamide] | 140
COc1ccc(-c2cc(C(=O)NC(C)(C)C)cc(-c3cncnc3C(C)C)n2)cc1 [Example 15, N-tert-Butyl-2-(4-methoxyphenyl)-6-(4-propan-2-yl-pyrimidin-5-yl)-pyridine-4-carboxamide] | 310
CC(C)c1ncncc1-c1cc(C(=O)NC(C)(C)C)cc(-c2ccc(Cl)c(F)c2)n1 [Example 9, N-tert-Butyl-2-(4-chloro-3-fluorophenyl)-6-(4-propan-2-yl-pyrimidin-5-yl)-pyridine-4-carboxamide] | 260

More lines, now with the values ahead:

Kb [nM] | SMILES
170 | CC(C)c1ccncc1-c1cc(C(=O)NC(C)(C)C)cc(-c2ccc(F)cc2)n1 [Example 27, N-tert-Butyl-2-(4-fluorophenyl)-6-(4-propan-2-yl-pyridin-3-yl)-pyridine-4-carboxamide]
63 | CC(C)(C)NC(=O)c1cc(-c2ccc(F)cc2)nc(-c2cncnc2C(C)(C)C)c1 [Example 22, N-tert-Butyl-2-(4-tert-butyl-pyrimidin-5-yl)-6-(4-fluorophenyl)-pyridine-4-carboxamide]
480 | Cc1ncncc1-c1cc(C(=O)NC(C)(C)C)cc(-c2ccc(F)cc2)n1 [Example 20, N-tert-Butyl-2-(4-fluorophenyl)-6-(4-methylpyrimidin-5-yl)-pyridine-4-carboxamide]
560 | CC(C)(C)NC(=O)c1cc(-c2ccc(F)cc2)nc(-c2cncnc2C2CC2)c1 [Example 21, N-tert-Butyl-2-(4-cyclopropylpyrimidin-5-yl)-6-(4-fluorophenyl)-pyridine-4-carboxamide]
290 | CC(C)(C)NC(=O)c1cc(-c2ccc(C(F)(F)F)cc2)nc(-c2cncnc2C(C)(C)C)c1 [Example 24, N-tert-Butyl-2-(4-tert-butyl-pyrimidin-5-yl)-6-[4-(trifluoromethyl)-phenyl]-pyridine-4-carboxamide]
310 | CC(C)c1ccncc1-c1cc(C(=O)NC(C)(C)C)cc(-c2ccc(Cl)cc2)n1 [Example 26, N-tert-Butyl-2-(4-chlorophenyl)-6-(4-propan-2-yl-pyridin-3-yl)-pyridine-4-carboxamide]
350 | CC(C)c1ccncc1-c1cc(C(=O)NC(C)(C)C)cc(-c2ccc(C(F)(F)F)cc2)n1 [Example 25, N-tert-Butyl-2-(4-propan-2-yl-pyridin-3-yl)-6-[4-(trifluoromethyl)-phenyl]-pyridine-4-carboxamide]
140 | CC(C)(C)NC(=O)c1cc(-c2ccc(Cl)cc2)nc(-c2cncnc2C(C)(C)C)c1 [Example 23, N-tert-Butyl-2-(4-tert-butylpyrimidin-5-yl)-6-(4-chlorophenyl)-pyridine-4-carboxamide]
